From patent US20050048539A1, “Methods to monitor molecule conformation and molecule/molecule proximity” (The General Hospital Corporation, priority 2003, published 2005)

How the values were obtained:
[1] = system: APP and PS1 (PS1/γ-secretase complex); test: FLIM assay for PS1 loop-APP C-terminus proximity in CHO cells treated with γ-secretase inhibitors; type: cell-based, Chinese hamster; details: WT PS1 CHO cells; donor PS1 loop-FITC, acceptor APP770-CY3; 4 h with DAPT 500 nM or WPE-III-31C 1 μM; non-FRET control 2600 ± 110, untreated 2290 ± 216
Procedure: (§1) Chinese hamster ovary (CHO) cells stably transfected with APP770 and either wild type PS1 (wt PS1) or Aspartate mutant PS1 (D257A PS1) were grown in OPTI-MEM with 5% fetal bovine serum and appropriate antibiotics (Puromycin or Zeocin, respectively, (Berezovska et al., 2000)).
Cells were fixed and immunostained 24 hrs posttransfection as described previously (Jack, C. et al., Brain Res Mol Brain Res 87: 166-174, 2001). We used a polyclonal C8 antibody (Selkoe, D. et al., Proc Natl Acad Sci USA 85: 7341-7345, 1988) to detect the C-terminus of APP. A monoclonal antibody to the loop region of PS1 (Chemicon, Temecula, Calif.) was used to identify the γ-secretase complex. PS1 N-terminal X81 antibody was a gift from D. Selkoe (Brigham and Women's Hospital, Boston, Mass.); PS1 C-terminal antibody was purchased from R&D Systems, Inc., Minneapolis, Minn.). For FRET/FLIM studies we chose Cy3-labeled goat anti-rabbit as the acceptor fluorophore, and FITC-labeled goat anti-mouse as the donor fluorophore.
Fluorescence Lifetime Imaging Microscopy (FLIM) relies on the observation that fluorescence lifetimes (the time of fluorophore emission after brief excitation, measured in picoseconds) are shorter in the presence of a FRET acceptor. […] We used a high-speed Hamamatsu detector and hardware/software from Becker and Hickl (Berlin, Germany) to measure fluorescence lifetimes on a pixel-by-pixel basis. […]
The following controls were used to establish and validate the FLIM assay: (1) As a negative control, FITC lifetime was measured in the absence of the acceptor. […] (2) As a positive control, FITC lifetime was measured in the presence of an acceptor. […] By contrast, the FITC fluorescence lifetime (FLIM image) within the area where the acceptor was photobleached reverts to a longer lifetime (color-coded as blue), identical to the lifetime of FITC in the absence of an acceptor (as in the negative control, FIG. 7A). […]
If there was no interaction, lifetimes on the order of ˜2600 psec were observed. If FRET was detected, a population with a statistically shorter lifetime (<˜2400 psec) was observed.

APP and PS1 = test: Photobleach dequenching FRET assay between APP and PS1; type: cell-based, Chinese hamster
Procedure: Fluorescence Resonance Energy Transfer (FRET) measurements were made using a BioRad1024 confocal microscope mounted on a Nikon Eclipse TE300 inverted Microscope. A krypton-argon laser was used to excite FITC and Cy3 (excitation wavelengths at 488 and 568 nm, respectively). FRET was measured using a method developed for laser scanning confocal microscopy (McLean, P. J. et al., J Biol Chem 275: 8812-8816, 2000; Kinoshita, A. et al., J Neurosci 21: 8354-8361, 2001). The amount of FRET was calculated as a percent increase in donor (FITC) fluorescence intensity after photobleaching the acceptor (Cy3) in a small part of the cell (˜8×8 μm). This ratio was then normalized to the percent change in FITC fluorescence intensity in a non-bleached area of the cell. The percent change in fluorescence intensity was compared to the null hypothesis value of 1.0 by one-group t-tests.
FRET arises when donor and acceptor molecules are <10 nm apart. […] A small area within the cell was photobleached at 568 nm (acceptor only), and FITC fluorescence intensity (at 488 nm) was measured before and after photobleaching.
Treatment with γ-secretase inhibitors (or Asp mutations in PS1) prevents processing of substrates at γ-secretase site. […] This was also true for the D257A PS1 mutation; we observed 25.9±11% (n=8, P<0.05) increase in FITC-fluorescence intensity, compared to a non-FRET control.

Aβ secretion = test: Aβ production after DAPT treatment (sister cultures); type: cell-based, Chinese hamster
Procedure: as §1
We investigated whether APP and PS1 interactions would still be observed if γ-secretase function was inhibited.

[2] = system: full-length APP, BACE1 and APP CTFs; test: Western blot of full-length APP, BACE1 and APP CTFs in N2a cells transfected with human APP751; type: cell-based, mouse; details: 1 μM DAPT
Procedure: For the Western Blot analysis, the cells were lysed in 1% Triton X-100 and electrophoresed in 10-20% SDS-polyacrylamide Tris-Glycine gels. The immunoblotting was performed using the APP C8 antibody (Selkoe, D. J. et al., Proc. Natl. Acad. Sci. USA 85, 7341-7345, 1988), mouse actin (Sigma-Aldrich) or rabbit BACE1 (Calbiochem), followed by detection with ECL reagent (Perkin Elmer, Boston, Mass.). Bands on films were quantitated (Odyssey software, LI-COR, Nebraska) and the values normalized to actin expression.
We further examined whether NSAIDs lead to a decrease in γ-secretase activity. Inhibition of γ-secretase activity leads to accumulation of C99 and C83 (APP CTFs) and decreased release of AICD. Mouse N2a neuroblastoma cells were transfected with human APP751, and were treated with different NSAIDs and a Western blot was performed for full-length APP and APP CTFs (FIG. 16A). […] Next we asked whether NSAIDs alter generation of AICD and examined the effects of NSAIDs on the ability of APP-Gal4 to be cleaved by γ-secretase, releasing the Gal4-AICD fragment which activates a Gal4-dependent, artificially expressed, luciferase plasmid (Cao, X. et al., Science 293: 115-120, 2001). […]

C[C@H](NC(=O)Cc1cc(F)cc(F)c1)C(=O)N[C@H](C(=O)OC(C)(C)C)c1ccccc1 [DAPT]
FITC Lifetime (psec) mean ± SD [1]: 2416 ± 118 (n = 9) psec
association of APP with PS1 (photobleach FRET, FIG. 10) (APP and PS1; DAPT-treated cells): does not prevent close association of APP with PS1
FRET: percent increase in FITC fluorescence intensity after photobleaching Cy3 (APP and PS1; wt PS1/APP770 cells, DAPT treatment, untreated 11.6±3%): 19.8±2%
Aβ secretion (Aβ secretion): significant decrease
APP CTFs (Western blot) [2]: accumulation of APP CTFs
